Data taken from ChEMBL document CHEMBL1130819, “Synthesis and biological evaluation of 1,2-disubstituted carbonucleosides of 2-amino-6-substituted purine and 8-azapurine” (Bioorg Med Chem Lett, 1998).
≈ marks a conversion by molar mass, not a printed value.

Key:
CCRF-CEM = test: Antitumor activity was evaluated against CEM cell line; assay type: functional, cell-based; settings: Homo sapiens
MOLT-4 = test: Antitumor activity was evaluated against Molt4/C8 cell line; assay type: functional, cell-based; settings: Homo sapiens
L1210 = test: Antitumor activity was evaluated against L1210 cell line; assay type: functional, cell-based; settings: Mus musculus
Human alphaherpesvirus 3 [1] = test: Antiviral activity against Varicella-Zoster virus(YS/R strain); assay type: functional, organism-based
Human alphaherpesvirus 3 [2] = test: Antiviral activity against Varicella-Zoster virus (07/1strain); assay type: functional, organism-based
Human alphaherpesvirus 3 [3] = test: Antiviral activity against Varicella-Zoster virus(OKA strain); assay type: functional, organism-based

Structure (SMILES)	IC50 (CCRF-CEM) [µM]	IC50 (MOLT-4) [µM]	IC50 (L1210) [µM]	EC50 (Human alphaherpesvirus 3 [1]) [µg/mL]	EC50 (Human alphaherpesvirus 3 [2]) [µg/mL]	EC50 (Human alphaherpesvirus 3 [3]) [µg/mL]
Nc1nc(Cl)c2ncn([C@H]3CCC[C@H]3CO)c2n1	83	49.1	71.4	–	–	–
Nc1nc(N)c2ncn([C@H]3CCC[C@H]3CO)c2n1	90	147	113	37 (≈ 149 µM)	–	–
Nc1nc(O)c2nnn([C@H]3CCC[C@H]3CO)c2n1	86.7	86	80	–	–	–
Nc1nc(N)c2nnn([C@H]3CCC[C@H]3CO)c2n1	90.5	120	77.2	50 (≈ 201 µM)	45 (≈ 181 µM)	32 (≈ 128 µM)
Nc1nc(Cl)c2nnn([C@H]3CCC[C@H]3CO)c2n1	53	75.3	71	–	–	–
Nc1nc(O)c2ncn([C@H]3CCC[C@H]3CO)c2n1	> 200	> 200	> 200	–	–	–
